Experimental data from PMC4311240, “Rationally Designed Peptidomimetic Modulators of Aβ Toxicity in Alzheimer's Disease” (Scientific Reports, 2015).
Non-standard residues stand in square brackets, D forms with d. Residues, ends and D or L forms follow the SMILES beside them. *: point of attachment. Acetyl(thymin-1-yl) = Cc1cn(CC(=O)*)c(=O)[nH]c1=O; Sar = CNCC(=O)O

Tests used:
[1] = Serum stability assay; type: in vitro ADME; conditions: 37°C; for half-life at 50 μM: n = 3; for serum half-life compared to P1: human blood serum, 50 μM; for remaining at 24 h, 50 μM: n = 3, read-out: peptide intact after 24 h in serum
Protocol: The impact of N-terminal modification (P2 and P3) and Sr (N-methylglycine) substitution (P4 and P5) in P1 were investigated for their proteolytic stability towards blood plasma proteases. The assay involved the incubation of peptides (50 μM) with blood serum at 37°C for a period of 24 h and assessing the amount of intact peptides at different time points (0, 3, 6, 12 and 24 h) using RP-HPLC. […] Remarkably, P4 and P5 were very stable towards blood plasma proteases in comparison to the other peptides (P1, P2 and P3). […] Proteolytic enzymes generally recognize the specific amide bond between the natural amino acids and cleave them. […] On the other hand, P4 and P5 with an unnatural amino acid (Sr: N-methylglycine) in alternate positions were not recognized by the blood plasma proteases, resulting in their high blood plasma protease stability.
Figure 6 Serum stability of inhibitors. Inhibitors (50 μM) (P1-P5)were incubated in human blood serum (HBS) and were analyzed at different time points over a duration of 24 h to determine the percentage of intact inhibitor. […] Each experiment was repeated three times (n = 3). Error bars represent the standard deviation (SD) of the […] measurement.
Human blood serum (HBS) was used to determine serum stability of the inhibitors. The HBS was centrifuged to remove the lipid component, and the supernatant was incubated at 37°C. 50 Μm of each inhibitor (P1, P2, P3, P4 and P5) was incubated in HBS and then 40 μL triplicate aliquots were removed at 0, 1, 3, 6, 10, 16, and 24 h. Each serum sample was quenched with 40 μL of 6 M urea and incubated at 4°C for 10 min. Then, each serum sample was quenched with 40 μL of trichloroacetic acid (20%) and incubated for another 10 min at 4°C to precipitate the serum proteins. The samples were centrifuged for 10 min, and […] of the supernatant was analyzed on RP-HPLC using a linear gradient of solvent B (0.3 mL/min flow rate). The control samples containing equivalent amounts of inhibitors in PBS buffer were subjected to the same treatment procedure. The percentage recovery of inhibitors was detected by integration at 254 nm[45].

[2] = target: T1, Aβ42 (Homo sapiens, UniProt P05067); test: ThT fluorescence inhibition assay of Aβ42 fibrillization; type: biochemical; conditions: for growth phase of Aβ42 fibrillization, time-dependent ThT assay / inhibition efficiency, time-dependent ThT assay: 1:2, 37°C, n = 3; for growth phase of Aβ42 fibrillization, time-dependent ThT assay: normalized fluorescence at 485 nm
T1 construct: Aβ42 peptide (0.25 mg) (Calbiochem, Merck) was dissolved in hexafluoro-2-propanol; purchased Calbiochem, Merck
T1 sequence (P05067 672-713 limits assumed): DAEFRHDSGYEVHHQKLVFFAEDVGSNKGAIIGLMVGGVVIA
Protocol: (§1) ThT assay has been widely used to monitor the transformation of Aβ42 monomers to fibrillar aggregates. We employed ThT assay to evaluate the ability of our peptidomimetic candidates to either prevent fibril assembly (inhibition) or to break down preformed fibrils of Aβ42 (dissolution). For the inhibition assay all the peptidomimetics (P2, P3, P4 and P5) along with control peptide P1 were added at 0 h of the experiment, whereas for the aggregates reversal (dissolution) assay they were added to Aβ42 fibrillar aggregates grown for 2 days. Once they had been incubated together, Aβ42/inhibitors were analyzed using ThT by measuring the fluorescence changes. First, we performed concentration-dependent experiments where different ratios of P1, P2, P3, P4 and P5 were incubated with fixed concentrations of Aβ42 (20 μM) and its aggregates to study their effect on both inhibition and reversal assay, respectively. Experiments were performed at stoichiometric ratios (Aβ42/inhibitor) of 1:0.2, 1:1, and 1:2 with the fixed concentration of Aβ42 of 20 μM. […] However, the efficiencies of P4 and P5 were only marginally better in inhibition assay compared to reversal assay with a difference of about 15%.
(§2) Fluorescence spectral measurements were carried out using Perkin Elmer Model LS 55 fluorescence spectrophotometer. […] A ThT concentration of 5–10 µM was used for amyloid fibrillization and dissolution assay based on the Aβ42 fibrillar concentration.
(§3) Prior to the experiment, P1, P2, P3, P4 and P5 were dissolved in HFIP and were evaporated under a stream of dry nitrogen. The dried samples were re-suspended in 10 mM PBS buffer at pH 7.4. An aliquot of Aβ42 peptide was then added to the solution with or without one of the inhibitor P1, P2, P3, P4 and P5. The mixtures were vortexed for approximately 30 s and then incubated at 37°C for 2–3 days without shaking. The final concentration of Aβ42 in the mixture was 20 μΜ. For a dissolution experiment, Aβ42 was incubated alone for 2 days to allow fibrils to form. An aliquot of the formed fibrils in 10 mM PBS buffer was then added to the inhibitor peptidomimetics. The amount of fibrils remaining intact was assayed using that fluorescence, CD measurements and transmission electron microscopy as described below.

[3] = system: pepsin; test: Protease stability assay, pepsin; type: in vitro ADME; conditions: 100 mM formic acid buffer pH 2, 50 μM, 37°C; for stability towards pepsin: 24 h, RP-HPLC; for remaining at 24 h, 50 μM: RP-HPLC at 254 nm, triplicates, read-out: peptidomimetic intact after 24 h with pepsin
Protocol: (§4) Enzymes trypsin and pepsin are well-known to cleave the C-terminal of lysine and amide bond involving aromatic amino acids, respectively. Peptides were incubated with both the enzymes at 37°C for 24 h, and the amount of the residual intact peptide was monitored in each case at different time points (0, 3, 6, 12 and 24 h) using RP-HPLC. […] Overall, the stability assays with blood plasma and proteolytic enzymes led to similar conclusions and confirmed the stability, order P5>P4≫P3≈P2>P1.
(§5) Preliminary stability assays were performed using the enzymes pepsin and trypsin. For all assays, peptides were incubated with the enzyme at 37°C for 24 h. All digestion assay data were analyzed by RP-HPLC. Trypsin and pepsin stocks were prepared in 100 mM ammonium bicarbonate (NH4HCO3) buffer (pH 8) and 100 mM formic acid buffer (pH 2), respectively. All the peptides/peptidomimetics (P1, P2, P3, P4 and P5) were incubated with trypsin and pepsin enzymes in 100 mM NH4HCO3 buffer (pH 8) and formic acid buffer (pH 2), respectively, at 37°C. The trypsin reactions were halted with 0.05% formic acid, and the pepsin reactions were halted with 100 mM NH4HCO3. Then the samples were analyzed by RP-HPLC using a linear gradient of solvent B (0.3 mL/min flow rate); similar data points were collected at various time points between 0 and 24 h (1 h, 3 h, 6 h, 12 h and 24 h) during incubation and analyzed in triplicates. The percentages of recovered peptide/peptidomimetics were detected by integration at 254 nm[46].
(§6) Figure S6. Stability towards protease enzymes pepsin and trypsin. P1, P2, P3, P4 and P5 ([…]) were incubated in with enzymes pepsin a and trypsin b in 100 mM formic acid buffer (pH 2) and 100 mM NH4HCO3 buffer (pH 8) respectively. Percentage of intact peptide in each case was monitored at different time points for a duration of 24 h. P1, P2 and P3 degraded with time, […]
(§7) (1 picture or pasted object on this page, not shown here)

[4] = target: T2, Aβ42 fibrillar aggregates (Homo sapiens, UniProt P05067); test: ThT fluorescence reversal (dissolution) assay of preformed Aβ42 fibrillar aggregates; type: biochemical; conditions: n = 3; for dissolution efficiency, fibril reversal assay (ThT): Aβ42 fibrillar aggregates grown for 2 days, 20 μM, 1:2 stoichiometry, day 6, 37°C; for dissolution efficiency, time-dependent reversal ThT assay: Aβ42 aggregates 20 μM, 1:2, 37°C
T2 construct: Aβ42 peptide (0.25 mg) (Calbiochem, Merck) was dissolved in hexafluoro-2-propanol; purchased Calbiochem, Merck
T2 sequence (P05067 672-713 limits assumed): as above
Protocol: as §1
Aβ42 peptide (0.25 mg) (Calbiochem, Merck) was dissolved in hexafluoro-2-propanol (HFIP, 0.2 mL) and incubated at room temperature for 1 h. HFIP was then removed by the flow of nitrogen and further dried under vacuum. HFIP-treated Aβ42 was then dissolved in 10 mM PBS buffer to a concentration of 200 μM at pH 7.4. The solution was incubated at 37°C for 48 h with constant shaking for fibril formation. The formation of Aβ42 fibrillar aggregates was confirmed by ThT fluorescence, CD measurements and electron microscopy. For oligomers, HFIP-treated Aβ42 dissolved in 10 mM PBS buffer and incubated at 4°C for 24 h[44].
as §2, §3

[5] = system: trypsin; test: Protease stability assay, trypsin; type: in vitro ADME; conditions: 100 mM NH4HCO3 buffer pH 8, 50 μM, 37°C; for stability towards trypsin: 24 h, RP-HPLC; for remaining at 24 h, 50 μM: RP-HPLC at 254 nm, triplicates, read-out: peptidomimetic intact after 24 h with trypsin
Protocol: as §4, §5, §6, §7

[6] = target: T1, Aβ42; test: CD measurement, inhibition assay (β-sheet band at 218 nm); type: biochemical; conditions: read-out: reduction in CD intensity at 218 nm (β-sheet content), inhibition assay
From the text: (§8) To further validate our results, we performed CD studies. Aβ42 aggregates are predominantly made of β-sheet assembly, which can be assessed by CD measurements. […] In this assay, we monitored the intensity of negative CD band centered at 218 nm, characteristic of a β-sheet structure and a decrease in its intensity was correlated with a reduction in the toxic Aβ42 aggregates (supplementary Fig. S2). In these CD measurements, samples similar to ThT fluorescence assays were used to allow for direct comparison between the two experiments. In the case of inhibition assay, Aβ42 monomers were incubated with inhibitor candidates for 4 days at 37°C and then CD measurements were performed to evaluate the inhibition efficiency. […] In the reversal assay, Aβ42 aggregates were incubated with the inhibitor candidates for six days at 37°C and then, CD measurements were performed. CD data was in excellent agreement with the dissolution efficiency obtained in reversal assay experiments monitored by the ThT assay (Fig. 2). […] Overall, inhibition and dissolution efficiencies obtained in the ThT fluorescence assay and CD measurements were in good agreement.
(§9) The circular dichroic (CD) spectra were recorded using a Jasco J-815 spectrometer under nitrogen atmosphere. Peptides were dissolved in 10 mM PBS buffer at pH 7.4 at concentrations of 20 µM. A 10 mm path length was used for the measurements. Four to five scans were acquired from 200 to 300 nm.
as §3

[7] = target: T3, Aβ42 aggregates (Homo sapiens, UniProt P05067); test: CD measurement, reversal assay (β-sheet band at 218 nm); type: biochemical; conditions: Aβ42 aggregates 20 μM, inhibitor 40 μM, six days at 37°C
T3 construct: Aβ42 peptide (0.25 mg) (Calbiochem, Merck) was dissolved in hexafluoro-2-propanol; purchased Calbiochem, Merck
T3 sequence (P05067 672-713 limits assumed): as above
From the text: as §8, §9, §3

[8] = human blood serum (centrifuged to remove lipid), 24 h, RP-HPLC at 254 nm
[9] = Aβ42 20 μM, Aβ42:inhibitor 1:2 (40 μM), inhibitor added at 0 h, four days at 37°C, 10 mM PBS pH 7.4, n = 3, read-out: inhibition efficiency (reduction in the fluorescence intensity of ThT)
[10] = Aβ42 20 μM, inhibitor 40 μM, 4 days at 37°C, vs untreated Aβ42

Row | SMILES | half-life at 50 μM [1, 8] [h] | metabolised at 24 h, 50 μM ([1]; human blood serum (centrifuged to remove lipid), 24 h, RP-HPLC at 254 nm, n = 3, read-out: peptide degraded at 24 h in serum) [%] | inhibition at 40 µM [2, 9] [%] | stability towards pepsin [3] | dissolution efficiency, fibril reversal assay (ThT) [4] [%] | stability towards trypsin [5] | serum half-life compared to P1 [1] [times] | inhibition at 40 µM [6, 10] [%] | growth phase of Aβ42 fibrillization, time-dependent ThT assay ([2]; Aβ42 20 μM) [%] | dissolution efficiency, time-dependent reversal ThT assay [4] [%] | dissolution efficiency by CD, reversal assay [7] [%] | inhibition at 40 µM [6] [%] | inhibition at 40 µM ([2]; pH 7.4, read-out: inhibition efficiency (reduction in the fluorescence intensity of ThT)) [%] | remaining at 24 h, 50 μM [1, 8] [%] | inhibition efficiency, time-dependent ThT assay ([2]; Aβ42 20 μM) [%] | remaining at 24 h, 50 μM [3] [%] | remaining at 24 h, 50 μM [5] [%]
1 | CC(C)C[C@H](NC(=O)[C@@H](N)CCCCN)C(=O)N[C@H](C(=O)N[C@@H](Cc1ccccc1)C(=O)N[C@@H](Cc1ccccc1)C(N)=O)C(C)C [P1, reference compound] | ~3 | 80 | 20 | less stable | 20 | less stable | – | – | – | – | – | – | – | – | – | – | –
2 | Cc1cn(CC(=O)N[C@@H](CCCCN)C(=O)N[C@@H](CC(C)C)C(=O)N[C@H](C(=O)N[C@@H](Cc2ccccc2)C(=O)N[C@@H](Cc2ccccc2)C(N)=O)C(C)C)c(=O)[nH]c1=O [P2] | ~10 | – | 55 | less stable | 45 | less stable | 3 | > 50 | < 60 | 35 | 40 | – | – | – | – | – | –
3 | CC(C)C[C@H](NC(=O)[C@H](CCCCN)NC(=O)CC1C(=O)NC(=O)NC1=O)C(=O)N[C@H](C(=O)N[C@@H](Cc1ccccc1)C(=O)N[C@@H](Cc1ccccc1)C(N)=O)C(C)C [P3] | ~10 | – | – | less stable | 34 | less stable | 3 | – | < 60 | 25 | 25 | ~30 | 40 | – | – | – | –
4 | Cc1cn(CC(=O)N(C)CC(=O)N[C@@H](CC(C)C)C(=O)N(C)CC(=O)N[C@@H](Cc2ccccc2)C(=O)N(C)CC(=O)N[C@@H](C)C(N)=O)c(=O)[nH]c1=O [P4] ({Acetyl(thymin-1-yl)}-[Sar]L[Sar]F[Sar]A-NH2) | – | – | ≤ 95 | – | 80 | – | – | > 80 | – | 68 | > 75 | – | – | > 90 | > 90 | > 90 | > 90
5 | Cc1cn(CC(=O)N[C@@H](CCCCN)C(=O)N(C)CC(=O)N[C@H](C(=O)N(C)CC(=O)N[C@@H](Cc2ccccc2)C(=O)N(C)CC(N)=O)C(C)C)c(=O)[nH]c1=O [P5] ({Acetyl(thymin-1-yl)}-K[Sar]V[Sar]F[Sar]-NH2) | – | – | ≤ 95 | – | 80 | – | – | > 80 | – | 75 | > 75 | – | – | > 90 | > 90 | > 90 | > 90
